Reference: patent US7829728B2, “Diarymethyl and related compounds” (Theravance, Inc., priority 2003, dated 2010)

Test system: guinea pigs, pilocarpine-evoked salivation
Assay: Inhalation guinea pig salivation assay (Assay Test Procedure H)
Assay type: in vivo
Settings: ratio of anti-sialagogue ID50 to bronchoprotective ID50, guinea pig
Method: Guinea pigs (Charles River, Wilmington, Mass.) weighing 200-350 g are acclimated to the in-house guinea pig colony for at least 3 days following arrival. Test compound or vehicle are dosed via inhalation (IH) over a 10 minute time period in a pie shaped dosing chamber (R+S Molds, San Carlos, Calif.). Test solutions are dissolved in sterile water and delivered using a nebulizer filled with 5.0 mL of dosing solution. Guinea pigs are restrained in the inhalation chamber for 30 minutes. During this time, guinea pigs are restricted to an area of approximately 110 sq. cm. This space is adequate for the animals to turn freely, reposition themselves, and allow for grooming. […] Upon completion of nebulization, guinea pigs are evaluated at 1.5, 6, 12, 24, 48, or 72 hrs after treatment.
Guinea pigs are anesthetized one hour before testing with an intramuscular (IM) injection of a mixture of ketamine 43.75 mg/kg, xylazine 3.5 mg/kg, and acepromazine 1.05 mg/kg at an 0.88 mL/kg volume. […] Saliva is collected for 10 minutes, at which point the gauze pad is weighed and the difference in weight recorded to determine the amount of accumulated saliva (in mg). The mean amount of saliva collected for animals receiving the vehicle and each dose of test compound is calculated. […] Results are calculated using result means (n=3 or greater). […]

In the case of NC(=O)C(c1ccccc1)(c1ccccc1)[C@@H]1CCN(CCC(=O)NCCCCCNC[C@H](O)c2ccc(O)c3[nH]c(=O)ccc23)C1 [Example 3, 3-[(S)-3-(Carbamoyldiphenylmethyl)pyrrolidin-1-yl]-N-{5-[(R)-2-hydroxy-2-(8-hydroxy-2-oxo-1,2-dihydroquinolin-5-yl)ethylamino]pentyl}propionamide], the apparent lung-selectivity index is reported as “greater than 5”.
